Read-outs that look alike come from different tables or passages of the source.
How the values were obtained:
Taxadiene Synthase (TDS) = target: T1, Taxadiene Synthase (TDS) (Taxus brevifolia, UniProt Q41594); assay: TDS activity by pyrophosphate assay; type: biochemical; settings: 30° C., pH 7.4
T1 construct: truncated first 60 amino acids, methionine added; made in house; host or cells: E. coli BL21 (DE3)
T1 sequence (Q41594 61-862 limits assumed): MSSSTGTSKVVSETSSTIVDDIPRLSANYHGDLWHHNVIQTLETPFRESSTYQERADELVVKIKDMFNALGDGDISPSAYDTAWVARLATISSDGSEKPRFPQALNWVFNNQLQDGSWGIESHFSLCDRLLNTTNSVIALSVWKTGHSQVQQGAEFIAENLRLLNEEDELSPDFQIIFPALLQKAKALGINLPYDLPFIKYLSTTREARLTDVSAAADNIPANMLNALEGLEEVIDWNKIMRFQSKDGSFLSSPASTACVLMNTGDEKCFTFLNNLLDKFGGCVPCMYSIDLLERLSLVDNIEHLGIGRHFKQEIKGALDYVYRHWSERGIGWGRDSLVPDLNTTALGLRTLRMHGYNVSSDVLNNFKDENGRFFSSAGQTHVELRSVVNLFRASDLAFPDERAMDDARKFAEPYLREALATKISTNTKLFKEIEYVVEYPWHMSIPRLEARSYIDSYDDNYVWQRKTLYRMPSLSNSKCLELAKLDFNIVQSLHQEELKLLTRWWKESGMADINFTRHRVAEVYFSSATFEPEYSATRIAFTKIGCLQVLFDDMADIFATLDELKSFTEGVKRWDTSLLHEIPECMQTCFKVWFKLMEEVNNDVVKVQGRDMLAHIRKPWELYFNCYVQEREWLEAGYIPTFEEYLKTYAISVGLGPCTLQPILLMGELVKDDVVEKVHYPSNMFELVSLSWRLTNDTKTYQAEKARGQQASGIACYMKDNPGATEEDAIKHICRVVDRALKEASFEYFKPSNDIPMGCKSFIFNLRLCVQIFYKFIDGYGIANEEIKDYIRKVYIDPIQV

IPK = target: T2, IPK (Arabidopsis thaliana, UniProt Q8H1F7); assay: Metabolic control analysis (lin-log elasticities) of multi-enzyme perturbation study; type: biochemical; settings: lin-log kinetics, 60 min, 5 mM isoprenol, 10 mM ATP
T2 construct: Arabidopsis thaliana (AAN12957.1), codon optimized; made in house; host or cells: E. coli BL21 (DE3)
T2 sequence (Q8H1F7 1-332): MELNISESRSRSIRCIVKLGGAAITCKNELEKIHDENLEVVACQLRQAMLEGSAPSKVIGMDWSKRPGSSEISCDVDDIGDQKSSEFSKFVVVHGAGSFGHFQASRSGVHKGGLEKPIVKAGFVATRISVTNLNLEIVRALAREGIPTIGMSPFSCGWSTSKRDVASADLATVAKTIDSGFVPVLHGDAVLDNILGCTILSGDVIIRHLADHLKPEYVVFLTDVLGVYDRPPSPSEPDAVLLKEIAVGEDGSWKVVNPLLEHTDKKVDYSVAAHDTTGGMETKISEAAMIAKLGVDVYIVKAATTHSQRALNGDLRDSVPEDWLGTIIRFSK
Protocol: (§1) In order to identify a PSS, an in vitro reaction was run, using the optimal enzyme concentrations, as predicted from the initial perturbation study, using a “main interactions only” linear regression model. A time profile of metabolic intermediate concentrations was constructed (FIG. 32). […] The reaction was stopped at 60 min in the repeat experiment.
(§2) [formula] where i represents the unit vector, v represents the relative flux compared to the reference state flux J^0, E^x0 represents the elasticity matrix for the metabolic intermediate concentrations (x^0) in relation to the enzyme concentration compared to the reference state as designed by e/e^0 and the relative intermediate metabolic concentrations compared to the reference state (x/x^0).
(§3) By applying this model to the data generated in the large perturbation study and alternating the designated reference state, 25 sets of elasticities were generated, using the maximum connectivity assumption to calculate the elasticity of every enzyme for each measured metabolite.

CK = target: T3, CK (Saccharomyces cerevisiae, UniProt P20485); assay: as above; type: biochemical; settings: lin-log kinetics, 60 min, 5 mM isoprenol, 10 mM ATP
T3 construct: S. cerevisiae (AAA34499.1), codon optimized; made in house; host or cells: E. coli BL21 (DE3)
T3 sequence (P20485 1-582): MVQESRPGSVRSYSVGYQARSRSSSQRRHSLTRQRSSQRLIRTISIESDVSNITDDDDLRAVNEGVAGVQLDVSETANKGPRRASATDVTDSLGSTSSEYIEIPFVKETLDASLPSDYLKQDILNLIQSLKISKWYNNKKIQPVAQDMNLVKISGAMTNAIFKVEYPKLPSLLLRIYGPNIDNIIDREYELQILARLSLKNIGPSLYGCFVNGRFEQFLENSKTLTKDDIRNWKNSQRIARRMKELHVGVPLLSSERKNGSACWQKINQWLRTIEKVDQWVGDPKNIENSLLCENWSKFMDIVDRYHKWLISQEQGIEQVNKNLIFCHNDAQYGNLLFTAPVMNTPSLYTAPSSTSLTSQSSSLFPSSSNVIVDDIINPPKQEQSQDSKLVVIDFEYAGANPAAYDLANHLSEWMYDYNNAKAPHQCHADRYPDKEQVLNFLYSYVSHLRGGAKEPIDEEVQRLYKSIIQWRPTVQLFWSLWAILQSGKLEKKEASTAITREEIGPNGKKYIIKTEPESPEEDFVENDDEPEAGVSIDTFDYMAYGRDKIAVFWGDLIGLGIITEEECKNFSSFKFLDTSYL
Protocol: as §1, §2, §3

[1] = target: T4, isopentenyl phosphate kinase (IPK) (Arabidopsis thaliana, UniProt Q8H1F7); assay: IPK kinetics by ATP consumption, PK-LDH coupled NADH assay; type: biochemical; settings: 10 mM ATP, 30° C., pH 7.4
T4 construct: Arabidopsis thaliana (AAN12957.1), codon optimized; made in house; host or cells: E. coli BL21 (DE3)
T4 sequence (Q8H1F7 1-332): T2 sequence (Q8H1F7 1-332)
Protocol: A single colony from each strain containing one plasmid for the expression of a single enzyme was inoculated into 5 mL of sterile LB media (BD Sciences) with kanamycin and grown overnight at 37° C. One milliliter was then inoculated into a 1 L flask containing 200 mL of sterile SOB media (AMERSCO) with kanamycin. The culture was grown at 30° C. until an optical density (OD) of 0.4-0.6 (λ=600 nm). At this point protein production was induced by the addition of IPTG for a final concentration of 0.1 mM and continued at 30° C. for 3 h. Cells were harvested by centrifugation at 3750 rpm in an Allegra X12R centrifuge (Beckman-Coulter). The supernatant was removed and the cell pellets were frozen at −20° C. until purification. Proteins were visualized by SDS-PAGE performed accordingly to the manufacturer's guidelines (Bio-rad). Gradient (4-20%) gels were purchased from Biorad, as were the Kaleidoscope pre-stained protein ladder, Laemmli 4× sample buffer, Tris-glycine-SDS buffer, and mini-protean electrophoresis chambers. Gels were stained using Instant-Blue (Expedeon). Protein concentrations were very roughly estimated from the gel using Image J (NIH) in order to determine an appropriate amount of resin for purification. Protein Purification All purification steps were performed in a single day on ice and in a cold room when possible. Cell pellets were thawed and resuspended in 30 mL of NPI-10 buffer (50 mM NaH2PO4, 300 mM NaCl, 10 mM imidazole, pH 8.0) and supplemented with 0.5 mM PMSF immediately prior to cell lysis. Cells were lysed by 2-3 passages through an EmulsiFlex-C5 high-pressure homogenizer (Avestin). Lysates were then centrifuged at 4 C for 15 min to remove cellular debris. The clarified lysate was loaded onto a Ni-NTA resin (Gold Bio, capacity 50 mg/mL) which was housed in a gravity column (Thermofisher) and was pre-equilibrated with 10 column volumes (CV) of NPI-10 buffer. The column was then washed with 10 CV of NPI-20 buffer (20 mM imidazole). The enzyme was then eluted from the column by 3 CV using NPI-250 buffer (250 mM imidazole). Enzymes were then exchanged into 50 mM Tris-HCl pH 7.5 using 10 kDa Microseps (Millipore) by centrifugation and repeated buffer exchanges until the imidazole was calculated to be under 1 mM. […] Enzyme concentration was determined using a bicinchoninic acid (BCA) assay kit from Pierce using bovine serum albumin as a standard (BSA). […] The kinetics for CK were previously determined as described. The kinetics for IPK were determined by ATP consumption using a pyruvate kinase (PK) lactate dehydrogenase (LDH) coupled assay (FIGS. 16A & 16B). […] NADH was made fresh each time and the appropriate concentration was determined by constructing a standard curve using a SpectraMax M3 and selecting the highest value in the linear range. […]

[2] = target: Geranylgeranyl pyrophosphate synthase (GGPPS) (Taxus canadensis, UniProt Q9ZPM3); assay: GGPPS activity by pyrophosphate formation (EnzChek pyrophosphate assay); type: biochemical; settings: reaction IPP + FPP; IPP varied with FPP held at 100 μM
Sequence of Geranylgeranyl pyrophosphate synthase (GGPPS) (Taxus canadensis, UniProt Q9ZPM3) (Q9ZPM3 entry or part of it): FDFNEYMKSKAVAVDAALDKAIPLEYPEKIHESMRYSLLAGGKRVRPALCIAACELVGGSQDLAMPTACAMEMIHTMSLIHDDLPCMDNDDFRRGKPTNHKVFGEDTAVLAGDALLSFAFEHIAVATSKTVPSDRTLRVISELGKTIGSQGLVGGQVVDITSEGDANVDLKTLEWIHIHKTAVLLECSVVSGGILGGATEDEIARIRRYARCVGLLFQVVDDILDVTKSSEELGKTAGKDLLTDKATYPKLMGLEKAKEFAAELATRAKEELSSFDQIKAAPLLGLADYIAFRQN
Protocol: A single colony from each strain containing one plasmid for the expression of a single enzyme was inoculated into 5 mL of sterile LB media (BD Sciences) with kanamycin and grown overnight at 37° C. One milliliter was then inoculated into a 1 L flask containing 200 mL of sterile SOB media (AMERSCO) with kanamycin. The culture was grown at 30° C. until an optical density (OD) of 0.4-0.6 (λ=600 nm). At this point protein production was induced by the addition of IPTG for a final concentration of 0.1 mM and continued at 30° C. for 3 h. Cells were harvested by centrifugation at 3750 rpm in an Allegra X12R centrifuge (Beckman-Coulter). […] Enzymes were then exchanged into 50 mM Tris-HCl pH 7.5 using 10 kDa Microseps (Millipore) by centrifugation and repeated buffer exchanges until the imidazole was calculated to be under 1 mM. […] Enzyme concentration was determined using a bicinchoninic acid (BCA) assay kit from Pierce using bovine serum albumin as a standard (BSA). […] The kinetics for CK were previously determined as described. The kinetics for IPK were determined by ATP consumption using a pyruvate kinase (PK) lactate dehydrogenase (LDH) coupled assay (FIGS. 16A & 16B). […] NADH was made fresh each time and the appropriate concentration was determined by constructing a standard curve using a SpectraMax M3 and selecting the highest value in the linear range. […]

[3] = tested on: Geranylgeranyl pyrophosphate synthase (GGPPS); settings: reported elsewhere (Hefner et al., 1998); cited from earlier work
[4] = target: Farnesyl pyrophosphate synthase (IspA) (Escherichia coli, UniProt P22939); settings: Ref Ku et al., 2005, Weaver et al., 2015, cited from earlier work
Sequence of Farnesyl pyrophosphate synthase (IspA) (P22939 whole entry): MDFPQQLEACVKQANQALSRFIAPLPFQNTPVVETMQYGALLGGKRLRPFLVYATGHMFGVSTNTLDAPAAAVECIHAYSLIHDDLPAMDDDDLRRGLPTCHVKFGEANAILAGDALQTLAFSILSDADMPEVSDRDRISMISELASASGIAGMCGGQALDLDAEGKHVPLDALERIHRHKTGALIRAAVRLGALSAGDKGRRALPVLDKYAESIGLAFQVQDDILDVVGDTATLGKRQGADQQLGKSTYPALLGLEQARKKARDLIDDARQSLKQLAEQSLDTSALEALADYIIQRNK

Compound `CC(C)=CCC/C(C)=C/CC/C(C)=C/CC/C(C)=C/COP(=O)(O)OP(=O)(O)O` [GGPP, geranylgeranyl diphosphate] has a Km (Taxadiene Synthase (TDS)) of 43 µM and a kcat (Taxadiene Synthase (TDS)) of 23.1 S^−1.
For `C=C(C)CCOP(=O)(O)O` [IP, isopentenyl monophosphate], the “effect on IPK activity (elasticity)” value (IPK) was “stimulatory”, the “effect on CK activity (elasticity)” value (CK) was “slightly inhibitory” and the Km [1] was 21.7 µM. For the same compound, the kcat [1] was 45.5 S^−1.
For `C=C(C)CCO[P@@](=O)(O)OP(=O)(O)O` [IPP, isopentenyl pyrophosphate], the Km [2] is listed as 13.5 µM, the Km [3] is listed as 6 µM and the Km ([4]; reaction IPP + DMAPP) is listed as 29.3 µM. For the same compound, the Km ([4]; reaction IPP + GPP) was 5.5 µM.

Reference: patent US11034980B2, “Microbial engineering for the production of isoprenoids” (Massachusetts Institute of Technology, priority 2018, dated 2021)
